Each block holds one compound with its values, some of them ahead of it.
Tested on: 377384-186-R-J1-PDC complex spheroid viability
Test: Anticancer human tumor 377384-186-R-J1-PDC patient-derived pancreatic carcinoma cell line growth inhibition [RAS]
Conditions: for IC50: curve of first compound; for viability, T/C: stronger effect = lower value
Procedure, shortened: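 Tumour cells grown as complex spheroids with HUVEC endothelial cells and mesenchymal stem cells, treated with RAS pathway inhibitor combinations. Each agent spans half-log steps from near clinical Cmax, or 10 microM where Cmax is unknown.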

[1] = second compound 0.0316 µM, first compound 0.000949 µM
[2] = second compound 0.0316 µM, first compound 0.003 µM
[3] = second compound 0.0316 µM, first compound 0.00949 µM
[4] = second compound 0.0316 µM, first compound 0.03 µM
[5] = second compound 0.0316 µM, first compound 0.0949 µM
[6] = second compound 0.0316 µM, first compound 0.3 µM
[7] = second compound 0.1 µM, first compound 0.000949 µM
[8] = second compound 0.1 µM, first compound 0.003 µM
[9] = second compound 0.1 µM, first compound 0.00949 µM
[10] = second compound 0.1 µM, first compound 0.03 µM
[11] = second compound 0.1 µM, first compound 0.0949 µM
[12] = second compound 0.1 µM, first compound 0.3 µM
[13] = second compound 0.316 µM, first compound 0.000949 µM
[14] = second compound 0.316 µM, first compound 0.003 µM
[15] = second compound 0.316 µM, first compound 0.00949 µM
[16] = second compound 0.316 µM, first compound 0.03 µM
[17] = second compound 0.316 µM, first compound 0.0949 µM
[18] = second compound 0.316 µM, first compound 0.3 µM
[19] = second compound 1 µM, first compound 0.000949 µM
[20] = second compound 1 µM, first compound 0.003 µM
[21] = second compound 1 µM, first compound 0.00949 µM
[22] = second compound 1 µM, first compound 0.03 µM
[23] = second compound 1 µM, first compound 0.0949 µM
[24] = second compound 1 µM, first compound 0.3 µM
[25] = second compound 3.16 µM, first compound 0.000949 µM
[26] = second compound 3.16 µM, first compound 0.003 µM
[27] = second compound 3.16 µM, first compound 0.00949 µM
[28] = second compound 3.16 µM, first compound 0.03 µM
[29] = second compound 3.16 µM, first compound 0.0949 µM
[30] = second compound 3.16 µM, first compound 0.3 µM
[31] = second compound 10 µM, first compound 0.000949 µM
[32] = second compound 10 µM, first compound 0.003 µM
[33] = second compound 10 µM, first compound 0.00949 µM
[34] = second compound 10 µM, first compound 0.03 µM
[35] = second compound 10 µM, first compound 0.0949 µM
[36] = second compound 10 µM, first compound 0.3 µM
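Further: spheroids exposed to compounds for seven days before readout.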

IC50 (second compound 0.0316 µM): < 0.949 nM | IC50 (second compound 0.1 µM): < 0.949 nM | IC50 (second compound 0.316 µM): < 0.949 nM | IC50 (second compound 1 µM): < 0.949 nM | IC50 (second compound 3.16 µM): < 0.949 nM | IC50 (second compound 10 µM): < 0.949 nM
Compound: CC1(C)CCC(Nc2ncc(C(F)(F)F)c(-c3c[nH]c4c(P(C)(C)=O)c(C#N)ccc34)n2)CN1 (centres undefined) + C#Cc1c(F)ccc2cc(O)cc(-c3ncc4c(N5CC6CCC(C5)N6)nc(OCC56CCCN5CC(F)C6)nc4c3F)c12
viability, T/C [1]: 22.5% | viability, T/C [2]: 20.6% | viability, T/C [3]: 14.8% | viability, T/C [4]: 14.3% | viability, T/C [5]: 11.5% | viability, T/C [6]: 10.4% | viability, T/C [7]: 12.3% | viability, T/C [8]: 8.6% | viability, T/C [9]: 7.96% | viability, T/C [10]: 7.41% | viability, T/C [11]: 7.16% | viability, T/C [12]: 6.43% | viability, T/C [13]: 4.28% | viability, T/C [14]: 5.25% | viability, T/C [15]: 2.68% | viability, T/C [16]: 4.16% | viability, T/C [17]: 3.74% | viability, T/C [18]: 2.89% | viability, T/C [19]: 4.34% | viability, T/C [20]: 2.56% | viability, T/C [21]: 2.74% | viability, T/C [22]: 3.25% | viability, T/C [23]: 2.68% | viability, T/C [24]: 2.91% | viability, T/C [25]: 2.73% | viability, T/C [26]: 2.34% | viability, T/C [27]: 1.84% | viability, T/C [28]: 2.23% | viability, T/C [29]: 2.14% | viability, T/C [30]: 2.47% | viability, T/C [31]: 1.18% | viability, T/C [32]: 1.24% | viability, T/C [33]: 1.33% | viability, T/C [34]: 1.3% | viability, T/C [35]: 0.94% | viability, T/C [36]: 0.79%

IC50 (second compound 0.0316 µM): < 0.949 nM | IC50 (second compound 0.1 µM): < 0.949 nM | IC50 (second compound 0.316 µM): < 0.949 nM | IC50 (second compound 1 µM): < 0.949 nM | IC50 (second compound 3.16 µM): < 0.949 nM | IC50 (second compound 10 µM): < 0.949 nM
Compound: CCc1c2c(nc3ccc(O)cc13)-c1cc3c(c(=O)n1C2)COC(=O)[C@]3(O)CC + C#Cc1c(F)ccc2cc(O)cc(-c3ncc4c(N5CC6CCC(C5)N6)nc(OCC56CCCN5CC(F)C6)nc4c3F)c12
viability, T/C [1]: 19.9% | viability, T/C [2]: 11.3% | viability, T/C [3]: 6.54% | viability, T/C [4]: 4.38% | viability, T/C [5]: 1.63% | viability, T/C [6]: 1.45% | viability, T/C [7]: 10.2% | viability, T/C [8]: 5.47% | viability, T/C [9]: 3.3% | viability, T/C [10]: 2.38% | viability, T/C [11]: 1.62% | viability, T/C [12]: 1.48% | viability, T/C [13]: 4.45% | viability, T/C [14]: 3.34% | viability, T/C [15]: 2.87% | viability, T/C [16]: 1.65% | viability, T/C [17]: 1.51% | viability, T/C [18]: 1.36% | viability, T/C [19]: 3.89% | viability, T/C [20]: 2.04% | viability, T/C [21]: 2.4% | viability, T/C [22]: 1.31% | viability, T/C [23]: 1.14% | viability, T/C [24]: 1.05% | viability, T/C [25]: 1.66% | viability, T/C [26]: 2.07% | viability, T/C [27]: 2.02% | viability, T/C [28]: 1.73% | viability, T/C [29]: 1.46% | viability, T/C [30]: 0.91% | viability, T/C [31]: 1.73% | viability, T/C [32]: 0.98% | viability, T/C [33]: 1.39% | viability, T/C [34]: 1.15% | viability, T/C [35]: 0.97% | viability, T/C [36]: 0.48%

Source: PubChem BioAssay AID2060903 (Molecular Pharmacology Branch, DTP, NCI, 2025)
